Data on one molecule can be found in patent US11472804B2, “Compositions and methods for modulating hair growth” (The Regents of the University of California, priority 2017, dated 2022).

One data set has as its system hair cycle. Kind of data set: Topical treatment of mice in telogen with UK-5099, hair cycle. The class given is in vivo. The method, then: (§1) FIG. 7A: Animals treated topically with UK-5099 (20 μM) show pigmentation and hair growth, indicative of entry into anagen, after 8 days of treatment. Full anagen, indicated by full coat of hair, is achieved after 14 days of treatment. […] Images shown are representative of at least 14 mice from 7 independent experiments. Scale bars indicate 100 micrometers. FIG. 7B: Graph showing time to observed phenotype in vehicle versus UK-5099 treated mice. n=6 mice per condition. Shown as mean±SEM. […] Ldh activity is indicated by purple stain; pink is nuclear fast red counterstain. Scale bars indicate 50 micrometers. FIG. 7D: Metabolomic analysis of Lactate on HFSCs isolated from UK-5099 treated skin for 48 hours; Each bar represents the average signal for each condition where n=9 mice pooled from 3 independent experiments. Shown as mean±SEM. Paired t-test was performed, p<0.05.
(§2) Quantification of the hair cycle across at least 6 pairs of animals (vehicle vs UK-5099) indicated a strong acceleration of the hair cycle, in as few as 6-9 days (FIG. 7B).

The next data set has as its system Ldh. In words: Ldh enzyme activity assay in the epidermis of topically treated animals. The class given is in vivo, mice. Conditions: topical, 48 hours during telogen. The method, then: as §1
To determine whether Ldha expression patterns correlate with activity of the Ldh enzyme, a colorimetric-based enzymatic assay was used to assess Ldh activity capacity in situ. Typically performed on protein lysates or aliquots with a plate reader, the Ldh activity assay was adapted to work in situ on frozen tissue sections. […]
as §2

Another data set concerns HFSCs. In words: Metabolomic analysis of lactate on HFSCs isolated from treated skin. The format is in vivo, mice. The note with it: topical application, treated skin for 48 hours. The method, then: as §1, §2
Where [1] appears, read: topical treatment of animals in telogen (day 50).

Entries after “also recorded” stand apart in the source; their conditions may differ.

Regarding `N#C/C(=C\c1cn(-c2ccccc2)c2ccccc12)C(=O)O` [UK-5099, (E)-2-Cyano-3-(1-phenyl-1H-indol-3-yl)acrylic acid], in the data set with hair cycle (setting [1]), the “acceleration of the hair cycle” value was “robust acceleration of the hair cycle” and the “proliferation of the interfollicular epidermis” value is recorded as “minor hyperproliferation of the interfollicular epidermis”. In the data set on hair cycle (topical, 20 μM, at 8 weeks), the “skin pathology, hair cycle stage” value is “enter an accelerated anagen”. In the data set with hair cycle (topical, 20 μM, mice), the “full anagen, indicated by full coat of hair, time of treatment” value was 14 days; the “pigmentation and hair growth, indicative of entry into anagen, time of treatment” value turned out to be 8 days. Also, in the data set with hair cycle (topical, at least 6 pairs of animals, vehicle vs UK-5099), the “quantification of the hair cycle, time to acceleration” value lay in the range of 6 to 9 days. In addition, in the data set on Ldh, the “Ldh activity in HFSCs and interfollicular epidermis” value is reported as “increased Ldh activity; also recorded: Ldh enzyme activity also seen in interfollicular epidermis”. In the data set on HFSCs, the “total levels of lactate in sorted HFSCs” value was “increases total levels of lactate”.
